Results as given in the supplement of paper PMC4862054.

Columns and labels:
Settings in all cases: incubation time: 72 h
[1] = tested on: HCC1937; test: normalised response (% of control), CellTiter-Glo; higher = more viable cells (100 = DMSO, 0 = benzethonium chloride kill control)
Summary of the method: (§1)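 For each plate, 0.1 % DMSO was set to 100 and a positive kill control to 0. Breast cancer cell lines (20 µl suspension) were seeded into 384-well plates already holding compound at 5 concentrations in 10-fold steps over a 10,000-fold range chosen per compound, and incubated for 72 h. CellTox Green fluorescence at 485/520 nm was read before CellTiter-Glo luminescence, which followed 10 min at room temperature. Each value is the normalised signal at one concentration.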

[2] = tested on: Hs578T; test: as above
Summary of the method: as §1

[3] = tested on: CAL-120; test: as above
Summary of the method: as §1

[4] = tested on: CAL-85-1; test: as above
Summary of the method: as §1

[5] = tested on: DU-4475; test: as above
Summary of the method: as §1

[6] = tested on: BT-549; test: as above
Summary of the method: as §1

[7] = tested on: CAL-51; test: as above
Summary of the method: as §1

[8] = tested on: CAL-148; test: as above
Summary of the method: as §1

[9] = tested on: SK-BR-3; test: as above
Summary of the method: as §1

[10] = tested on: MCF-10A; test: as above
Summary of the method: as §1

[11] = tested on: HCC1599; test: as above
Summary of the method: as §1

[12] = tested on: MDA-MB-436; test: as above
Summary of the method: as §1

[13] = tested on: MDA-MB-468; test: as above
Summary of the method: as §1

[14] = tested on: BT-474; test: as above
Summary of the method: as §1

[15] = tested on: MFM-223; test: as above
Summary of the method: as §1

[16] = tested on: MDA-MB-453; test: as above
Summary of the method: as §1

[17] = tested on: HDQ-P1; test: as above
Summary of the method: as §1

[18] = tested on: MDA-MB-231; test: as above
Summary of the method: as §1

[19] = tested on: HCC1143; test: as above
Summary of the method: as §1

[20] = tested on: HCC1937; test: normalised response (% of control), CellTox Green; higher = less cell death (100 = DMSO, 0 = benzethonium chloride kill control)
Summary of the method: as §1

[21] = tested on: Hs578T; test: as above
Summary of the method: as §1

[22] = tested on: CAL-120; test: as above
Summary of the method: as §1

[23] = tested on: CAL-85-1; test: as above
Summary of the method: as §1

[24] = tested on: DU-4475; test: as above
Summary of the method: as §1

[25] = tested on: BT-549; test: as above
Summary of the method: as §1

[26] = tested on: CAL-51; test: as above
Summary of the method: as §1

[27] = tested on: CAL-148; test: as above
Summary of the method: as §1

[28] = tested on: MCF-10A; test: as above
Summary of the method: as §1

[29] = tested on: HCC1599; test: as above
Summary of the method: as §1

[30] = tested on: MDA-MB-468; test: as above
Summary of the method: as §1

[31] = tested on: BT-474; test: as above
Summary of the method: as §1

[32] = tested on: MFM-223; test: as above
Summary of the method: as §1

[33] = tested on: MDA-MB-453; test: as above
Summary of the method: as §1

[34] = tested on: HDQ-P1; test: as above
Summary of the method: as §1

[35] = tested on: MDA-MB-231; test: as above
Summary of the method: as §1

[36] = tested on: HCC1143; test: as above
Summary of the method: as §1

[37] = tested on: MDA-MB-436; test: as above
Summary of the method: as §1

SMILES | normalised response [1] [%] | normalised response [2] [%] | normalised response [3] [%] | normalised response [4] [%] | normalised response [5] [%] | normalised response [6] [%] | normalised response [7] [%] | normalised response [8] [%] | normalised response [9] [%] | normalised response [10] [%] | normalised response [11] [%] | normalised response [12] [%] | normalised response [13] [%] | normalised response [14] [%] | normalised response [15] [%] | normalised response [16] [%] | normalised response [17] [%] | normalised response [18] [%] | normalised response [19] [%] | normalised response [20] [%] | normalised response [21] [%] | normalised response [22] [%] | normalised response [23] [%] | normalised response [24] [%] | normalised response [25] [%] | normalised response [26] [%] | normalised response [27] [%] | normalised response [28] [%] | normalised response [29] [%] | normalised response [30] [%] | normalised response [31] [%] | normalised response [32] [%] | normalised response [33] [%] | normalised response [34] [%] | normalised response [35] [%] | normalised response [36] [%] | normalised response [37] [%]
CN(C)CCN1C(=O)c2cccc3cc(N)cc(c23)C1=O [Amonafide] (1000 nM) | 89.9 | 93.6 | 96.2 | 93.6 | 87.1 | 97.2 | 113 | 87.2 | 89.5 | 92.2 | 106 | 95.2 | 91.6 | 87.5 | 101 | 107 | 102 | 95.6 | 97.6 | 116 | 113 | 98.9 | 100 | 96.7 | 130 | 106 | 93.9 | 100 | 102 | 52 | 99.3 | 97.3 | 106 | 106 | 122 | 100 | –
CCCCCCCCc1ccc(CCC(N)(CO)CO)cc1 [Fingolimod] (1000 nM) | 103 | 99.9 | 96.1 | 103 | 100 | 99.3 | 80.5 | 101 | 102 | 103 | 114 | 103 | 98.1 | 94.6 | 107 | 102 | 103 | 94.3 | 101 | – | 106 | 99.4 | 101 | 103 | 131 | 106 | 107 | 57.9 | 106 | 160 | 103 | 102 | 103 | 89 | 122 | 111 | 90.6
Cc1ccc(NC(=O)c2ccc(CN3CCN(C)CC3)cc2)cc1Nc1nccc(-c2cccnc2)n1 [Imatinib] (1000 nM) | 93.6 | 105 | 108 | 104 | 105 | 106 | 96.3 | 103 | 105 | 111 | 101 | 102 | 99.9 | 102 | 104 | 111 | 101 | 106 | 99.2 | – | 104 | 106 | 110 | 101 | 121 | 103 | 101 | 101 | 104 | 137 | 98.8 | 105 | 103 | – | 107 | 113 | –
c1ccc([C@H]2CN3CCSC3=N2)cc1 [Levamisole] (1000 nM) | 99.6 | 101 | 101 | 104 | 99.2 | 100 | 73.4 | 103 | 113 | 109 | 98.4 | 104 | 110 | 100 | 105 | 105 | 106 | 104 | 109 | 108 | – | 100 | 107 | 106 | 120 | 103 | 107 | 113 | 104 | 68.7 | 102 | 102 | 96.9 | 75.4 | 117 | 101 | 85
Nc1nc(OCc2cc(Br)cs2)c2[nH]cnc2n1 [Lomeguatrib] (1000 nM) | 97.8 | 102 | 96.6 | 104 | 102 | 96.6 | 103 | 99.3 | 103 | 104 | 118 | 97.6 | 100 | 103 | 104 | 105 | 102 | 103 | 101 | 111 | 100 | 102 | 98.9 | 101 | 108 | 104 | 99.9 | 93.5 | 93.2 | 139 | 100 | 82.9 | 103 | 112 | 104 | 117 | –
CNNCc1ccc(C(=O)NC(C)C)cc1 [Procarbazine] (1000 nM) | 105 | 109 | 102 | 102 | 94.8 | 98.7 | 78.5 | 104 | 110 | 105 | 101 | 104 | 105 | 98.1 | 101 | 100 | 103 | 107 | 104 | 105 | 101 | 106 | 95.4 | 104 | 107 | 103 | 104 | 107 | 95 | 84 | 101 | – | 70.8 | 104 | 104 | 123 | 98
CN(C)C[C@@H]1CCn2cc(c3ccccc32)C2=C(C(=O)NC2=O)c2cn(c3ccccc23)CCO1 [Ruboxistaurin] (1000 nM) | 86 | 104 | 83.7 | 103 | 80.7 | 91.1 | 93 | 76.6 | 87.7 | 86.1 | 111 | 92.2 | 73.8 | 87.3 | 86.8 | 96.1 | 85.8 | 92.6 | 90 | 104 | – | 98.7 | 111 | 100 | 106 | 78.1 | 55 | 103 | 95 | 122 | – | 79.2 | 95.9 | 98.5 | 97.2 | 109 | 106
O=C1NC(=O)[C@@H](c2cn3c4c(cccc24)CCC3)[C@@H]1c1c[nH]c2ccccc12 [Tivantinib] (1 nM) | 101 | 101 | 100 | 96.1 | 98 | 101 | 106 | 100 | 113 | 106 | 104 | 109 | 104 | 107 | 97.9 | 106 | 98.7 | 98.2 | 98.9 | – | – | – | – | – | – | – | – | – | – | – | – | – | – | – | – | – | –
O=C1NC(=O)[C@@H](c2cn3c4c(cccc24)CCC3)[C@@H]1c1c[nH]c2ccccc12 [Tivantinib] (100 nM) | 94.6 | 94.6 | 103 | 89.5 | 96.5 | 92.4 | 115 | 96.9 | 92 | 97.7 | 127 | 98 | 96.1 | 106 | 99 | 77.3 | 105 | 99.2 | 93.9 | 100 | 75 | 97.9 | 93.4 | 98.7 | 106 | 103 | – | 113 | 85.6 | 116 | 94.2 | 89.4 | 104 | – | 110 | 60.7 | 91.5
CC[C@]1(O)C[C@H]2CN(CCc3c([nH]c4ccccc34)[C@@](C(=O)OC)(c3cc4c(cc3OC)N(C=O)[C@H]3[C@@](O)(C(=O)OC)[C@H](OC(C)=O)[C@]5(CC)C=CCN6CC[C@]43[C@@H]65)C2)C1 [Vincristine] (0.1 nM) | 94.1 | 110 | 94.7 | 99.1 | 106 | 99.5 | 88.2 | 109 | 102 | 105 | 92.7 | 116 | 112 | 97.8 | 102 | 107 | 99.9 | 104 | 103 | – | – | – | – | – | – | – | – | – | – | – | – | – | – | – | – | – | –
